In assay [1] the test system is HSV-1 proteins, mRNA and DNA. Description: Levels of viral proteins (Western blot), mRNA and DNA (slot blot) in infected HEp2 cells. It is filed as cell-based. Background: Immunoblotting shows a protein as a band on a membrane.
Experimental: Total RNA and DNA from control mock-infected and infected HEp2 cells were purified using Qiagen RNA/DNA kit. RNA were submitted to DNAse/RNAse free digestion (1.5 unit/μg RNA) and DNA were submitted to RNAse A digestion (10 units/μg). Quantitation of SAMDC mRNA, of viral mRNAs and viral DNA present in each sample was determined by slot blot analysis using the 1250 bp PstI/PvuII fragment of pSAMr1 plasmid (Pajunen et al., 1988). The 746 bp SalI-EcoNI fragment of pSG28 and the 1308 bp MluI fragment of pSG124 plasmids (Goldin et al., 1981) were labelled with [^32P] and used as probes to detect the immediate early ICP27 and the early UL42 mRNAs respectively. Us11 late mRNA was detected with [^32P]-labelled probe composed of the 230 bp XhoI fragment of pHSV-Us12 plasmid (Diaz et al., 1996). Viral DNA was detected using the ICP27 specific DNA probe.
Mock-infected and HSV-1-infected HEp2 cells were washed three times with ice cold phosphate-buffered saline (PBS) (130 mM NaCl, 4 mM Na2HPO4.2H2O, 1.5 mM KH2PO4), scrapped into PBS, and collected by centrifugation at 500×g. Cells were resuspended in Laemmli buffer (Laemmli, 1970). Proteins were resolved by polyacrylamide gel electrophoresis and transferred by electroblotting onto a polyvinylidene difluoride membrane (Immobilon-P; Millipore). Viral proteins were analysed by Western blots (10 μg aliquots) using a 50 fold dilution of either a rabbit polyclonal anti-ICP27 antibody, or a rabbit polyclonal anti-Us11 antibody (Diaz et al., 1993), or a mouse monoclonal anti-UL42 antibody diluted 50 fold.
Cells were pre-treated with 10 to 200 μM of MGBG, then infected with HSV-1 in the presence of the same concentrations of MGBG. Proteins, RNA and DNA were extracted from cells infected for 24 h. Viral proteins were detected by Western blot using specific antibodies, whereas viral mRNA and DNA levels were assayed by slot blot analysis.
The next assay deals with HSV. Description: HSV replication in cellulo. It is filed as cell-based. The conditions noted are these: read-out: HSV inhibition in cellulo IC50. The procedure:
(§1) Three HSV 1 reference strains were tested : SC16 (acyclovir-susceptible reference strain; (Hill et al., 1975)), DM21 (acyclovir-resistant reference strain derived from SC16; (Efstathiou et al., 1989)) and TP 2.5 (foscarnet-resistant reference strain derived from SC16; (Larder and Darby, 1985)). Antiviral assays were performed in duplicate on HEp-2 cells seeded in 96 wells microplates. Dilutions of virus and drugs were prepared in E-MEM without FCS. Cells were first treated for 24 hours with MGBG using a series of 6 twofold serial dilutions from 12.5 to 400 μM. Infection was then achieved with 5 tenfold dilutions of cell-associated virus (10^−1 to 10^−5). Each dilution was incubated with a series of 6 concentrations of each antiviral drug (from 12.5 to 400 μM in twofold dilutions for MGBG, from 0.16 to 500 μM in fivefold dilutions for acyclovir and from 31 to 1000 μM in twofold dilutions for foscarnet). […] After incubation at 36° C. with 5% CO2 for 24 hours post-infection, medium was replaced with freshly prepared dilutions of MGBG. Viral multiplication was checked 24 hours afterwards by an ELISA (Morfin et al., 1999), using a rabbit monoclonal anti-HSV 1 antibody (BO 114, Dako) and a protein A peroxidase-conjugated (BioRad). The substrate, 2,2′-azino-di(3-ethyl-benzthiazoline) sulfonic acid (ABTS) diluted in ABTS buffer (Boehringer, Mannheim), was added to each well. After 30 min at room temperature, the plates were briefly agitated and optical densities were read at 405 nm with a multichannel spectrophotomoter (Titertek-Multiskan). Optical density values were used with the Biolise program (Life Sciences International) to calculate the concentration of the drug causing a 50% inhibition of viral replication (IC50) by logistic regression analysis.

Assay [2] concerns acyclovir-susceptible reference strain SC16. Description: Antiviral susceptibility testing by ELISA on HEp-2 cells, strain SC16. The class given is cell-based, HSV 1. Conditions: HEp-2, read-out: Susceptibility of strain SC16 (concentration causing 50% inhibition of viral replication, IC50), median. The procedure:
as §1
The capacity of MGBG to preclude infection of three HSV-1 acyclovir and/or foscarnet resistant strains was tested. […] The ED values were determined.
In general terms: An ELISA detects its analyte on a solid surface through an enzyme-linked reagent.

The results in this text go back to patent US20070059299A1, “S-adenosyl methionine decarboxylase inhibition for the treatment of a herpes simplex virus infection” (Institut National de la Sante et de la Recherche Medicale …, priority 2002, published 2007).

Regarding `CC(C=NNC(=N)N)=NNC(=N)N` [MGBG, methylglyoxal bis(guanylhydrazone)], the viral replication result in assay [1] (6 h pre-treatment with 100 μM MGBG, MGBG alone, 24 h p.i.) is reported as “totally inhibited”. Moreover, in assay [1] (cells pre-treated with 10 to 200 μM MGBG, infected 24 h, dose dependant), the “viral DNA level, viral mRNA and proteins” value is given as “significantly decreased”. Moreover, the IC50 came out at 44 µM in the assay on HSV and 103 µM in assay [2].
